Ends that are not written are not given here.
Key:
[1] = tested on: IMR-32 human neuroblastoma cell-line (endogenous Aβ40 or 42 production); experiment: Endogenous Aβ40 and 42 production in IMR-32 culture medium by ELISA; format: cell-based
Protocol: A human neuroblastoma cell-line, IMR-32 (ATCC CCL-127) was cultured in MEM Earles medium containing 10% fetal bovine serum, 2 mM L-glutamine in the presence of penicillin and streptomycin. Equal numbers of cells (0.3 x 10^6 per well) were plated on 6-well plates overnight. Peptides (0–5 μM) were added to fresh culture medium (500 μl per well) and left in the incubator for 24 hours, after which the culture medium from each well was removed and stored at -80°C in the presence of 4-(2-Aminoethyl) benzenesulfonyl fluoride hydrochloride (AEBSF) and protease inhibitors. Prior to use, the culture medium was centrifuged in an eppendorf microfuge for 5 min at 4°C, the supernatant diluted with an equal volume of sample diluent buffer (Wako) and analyzed for the presence of Aβ40 or 42 using a commercial ELISA kit (Wako).

[2] = biological target: T1, soluble ectodomain of APP (APPs, APP 695) (Homo sapiens, UniProt P05067); experiment: Biolayer interferometry, biotinylated peptides on streptavidin biosensors vs purified soluble APP (APPs); format: binding; details: biotinylated peptide on SA biosensors, 30°C
T1 construct: host or cells: Sf9 insect cells (baculovirus), conditioned medium
T1 sequence (P05067 18-612 isoform P05067-4 limits assumed): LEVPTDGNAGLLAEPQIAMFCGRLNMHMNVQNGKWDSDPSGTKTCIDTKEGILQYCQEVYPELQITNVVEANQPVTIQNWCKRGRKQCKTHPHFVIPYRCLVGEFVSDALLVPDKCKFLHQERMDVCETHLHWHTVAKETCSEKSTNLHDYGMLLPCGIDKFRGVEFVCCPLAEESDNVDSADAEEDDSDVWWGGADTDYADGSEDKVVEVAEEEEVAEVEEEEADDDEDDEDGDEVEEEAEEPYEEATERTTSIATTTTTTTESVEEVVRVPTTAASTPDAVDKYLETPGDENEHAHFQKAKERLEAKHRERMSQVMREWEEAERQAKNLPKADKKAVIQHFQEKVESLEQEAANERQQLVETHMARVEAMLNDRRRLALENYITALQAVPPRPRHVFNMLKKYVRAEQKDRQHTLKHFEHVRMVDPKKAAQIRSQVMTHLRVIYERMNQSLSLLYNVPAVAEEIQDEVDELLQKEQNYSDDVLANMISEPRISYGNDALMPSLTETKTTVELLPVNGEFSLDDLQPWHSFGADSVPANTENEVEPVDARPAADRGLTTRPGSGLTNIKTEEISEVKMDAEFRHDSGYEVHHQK
Protocol: Sf9 cells (ATCC CRL 1711) were grown in TMN-FH complete medium (Pharmingen) in suspension and infected at a multiplicity of infection of 2 with a titred stock of recombinant virus expressing human APP695. Conditioned media and/or cells were harvested 6 days after infection. Cells and debris were removed by centrifugation (at 1000 x g for 15 min).
Recombinant baculoviruses were produced according to published protocols. A fragment containing full-length APP 695 was subcloned into the baculovirus transfer vector pBlueBac3 (Invitrogen). The resulting recombinant vector was co-transfected with baculovirus DNA into sf9 cells. Recombinant APP expression was verified by Western blot hybridization using mouse MAb against human APP (Cat # MAB348, Millipore).
APPs was purified from baculovirus conditioned medium to >95% purity, as assessed by densitometry analysis of Coomassie stained SDS PAGE gels, by Arvys Proteins, Stamford, CT, using the following strategy. The conditioned medium proteins were purified by heparin-affinity chromatography, followed by two gel filtration chromatography steps over HiPrep Sephacryl S300 columns and two steps of anion exchange chromatography on HiTrapQ columns.
The binding affinities of peptides P1, scrambled P1, P4, P5, P7 and P8 for the soluble ectodomain of APP or control IgG were measured by biolayer interferometry on an Octet RED96 System (Pall FortéBio Corp., Menlo Park, CA). This system monitors interference of light reflected from two sources (an internal reflection surface and the liquid/solid interface of a fiber optic sensor) to measure the rate of binding of molecules to the biosensor surface.
Peptides were synthesized and biotinylated at the NH2-terminus by Dr. Michael Freydkin at Biopeptides, Inc., San Diego, CA, and purified to >95% by HPLC. Biotinylated peptides were loaded onto Streptavidin (SA) biosensors (Pall FortéBio Corp.) at empirically determined concentrations. All affinity measurements were carried out in Kinetics Buffer (KB) (1X PBS, 0.002% Tween-20, and 0.01% BSA) at 30°C. Typically, the biosensors were pre-equilibrated in KB for 120s, loaded with a biotinylated peptide at optimal concentrations and times, quenched with 10 μg/ml biocytin in KB for 180s, brought to baseline in KB for 120s and transferred to wells containing purified APPs (0–200 nM). Multiple negative controls were run for each peptide including association buffer only (no APP) or with IgG replacing APP. Binding kinetics were calculated using the FortéBio Data Analysis v7.1 software. The association (k on) and dissociation (k off) rate constants were obtained by fitting the association and dissociation data to a 1:1 model. Binding affinity, KD, was calculated as k off/k on.

BACE-1 in IMR-32 cells = experiment: BACE-1 activity in extracts of cultured IMR-32 cells; format: cell-based, human; details: 0–5 μM, 24 h, SensiZyme kit, 405 nm, percent control, n = 2–3
Protocol: IMR-32 cells in culture were treated with peptides P4, P8 and scrambled peptide P1 (0–5 μM) or the BACE-1 inhibitor […] (Selleck Chemicals) (0–500 nM) for 24 h. Cells were harvested and extracts prepared by sonication and solubilization in cell lysis buffer containing 1% Triton X-100 and EDTA (Cell Signaling Technologies) and supplemented with complete protease inhibitor cocktail (Roche) according to the manufacturer’s protocols. BACE-1 activity was measured as already described above using the SensiZyme BACE-1 activity assay kit.

[3] = tested on: NICD (γ-secretase activity); experiment: NICD levels in neocortex of treated mThy1-hAPP mice by Western blot (γ-secretase activity); format: in vivo, mouse; details: peptide-infused mThy1-hAPP mice vs PBS, n = 5, two weeks after end of treatment
Protocol: Extracts of neocortex of mThy1-hAPP mice treated with P4, P8 or PBS only were electrophoresed on SDS gels and Western blotted with primary rabbit antibodies against NICD (Cat# 07–1232, Millipore) at 4°C overnight, followed by horse-radish peroxidase (HRP)-conjugated goat anti-rabbit IgG (Bio-Rad). The immunoreactive bands were detected by chemiluminescence (Thermo Scientific).
An optimal therapeutic approach to AD would avoid producing serious effects on other biochemically and physiologically important processes, as would occur if the cleavages of any of the other substrates of β- or γ-secretase were affected in the process of reducing the levels of Aβ. An especially well-studied example is the γ-secretase activity of PS-1 that is critically involved in the final enzymatic cleavage of Aβ from APP; it also functions in an essential developmental process that generates NICD from Notch. […] At the same time we analyzed the same tissue samples for their β-secretase (BACE-1) activity and APP expression. Extracts were prepared of the neocortex of Tg mice that had been treated with P4, P8 or PBS, and the levels of NICD were determined by Western blot analysis with a primary rabbit Ab against NICD. […]

[4] = ref evidence that will be presented elsewhere, cited from earlier work
Text: Two types of technologies have largely been pursued in the field thus far in efforts to reduce the levels of Aβ: β- or γ- secretase inhibitors or modulators, and the use of Aβ-specific monoclonal antibodies. Neither approach has been entirely successful, and γ-secretase inhibitors have been particularly problematic because of off-target effects due to the inhibition of their other substrates, Notch in particular.

[5] = tested on: NICD / γ-secretase in Jurkat cells; experiment: NICD levels in extracts of Jurkat cells by ELISA (γ-secretase activity); details: 0–10 μM, 24 h, 450 nm, percent control, n = 2–3
Protocol: Jurkat cells (Sigma) were cultured in RPMI 1640 medium supplemented with 10% FCS, 2 mM L-glutamine, penicillin and streptomycin at 37°C in the presence of 5% CO2. […] After harvesting the cells, extracts were prepared by sonication in lysis buffer (Cell Signaling Technologies) supplemented with 1mM PMSF and complete protease inhibitor cocktail (Roche). The solubilized extracts were then used in ELISA assays to determine NICD levels, as a measure of γ-secretase activity, using the PathScan Cleaved Notch 1 (Val 1744) sandwich ELISA kit (Cell Signaling Technologies) according to the manufactuer’s protocols.

Sequence	Effect on Aβ40 and 42 production in vitro (in words) ([1]; 0–5 μM peptide, 24 h, IMR-32 culture medium, ELISA)	Production of total Aβ and of Aβ 40 and 42 (summary in words) ([1]; Discussion summary, stated as in vitro and in vivo (mThy1-hAPP Tg mice))	Binding to purified APPs (in words) ([2]; Kinetics Buffer)	BACE-1 activity in IMR-32 cells, peptides (in words) (BACE-1 in IMR-32 cells)	koff ([2]; 1:1 model, Kinetics Buffer) [s⁻¹]	kon ([2]; 1:1 model, Kinetics Buffer) [M⁻¹ s⁻¹]	Kd ([2]; k off/k on, 1:1 model, Kinetics Buffer (1X PBS, 0.002% Tween-20, 0.01% BSA)) [nM]	NICD levels in neocortex (in words) [3]	Stability (in words) ([4]; matrix not stated)	Brain delivery (in words) ([4]; rats)	NICD levels in Jurkat cells, peptides (in words) [5]
PTERLLKGTVRLKQQLDQDESDARNLRNNLNPQRGFMALDESERHENRSAMQVESHQNPHPPYETEQENDEGSGSEYSNV [SP1, scrambled P1, control peptide]	no significant changes in Aβ levels	did not reduce Aβ	no significant binding to APP	remained essentially unchanged							
DEEEDEEL [Peptide P8]					0.00306	886000	3.45	not accompanied by any significant changes in the levels of NICD	stable	can be successfully delivered to the brain in rats	no appreciable change in the levels of NICD

From paper PMC4414571, “Peptides of Presenilin-1 Bind the Amyloid Precursor Protein Ectodomain and Offer a Novel and Specific Therapeutic Approach to Reduce ß-Amyloid in Alzheimer’s Disease” (PLoS ONE, 2015)
